Tests used:
[1] = biological target: T1, human TLR8 (Homo sapiens, UniProt Q9NR97); assay: HEK Reporter Assay, HEK293 reporter cells expressing human TLR8; type: cell-based; details: HEK293 NFKB reporter cells expressing human TLR8; read-out: HEK293 hTLR8 EC50
T1 construct: host or cells: HEK293 NF-kB reporter cells
T1 sequence (Q9NR97 27-1041): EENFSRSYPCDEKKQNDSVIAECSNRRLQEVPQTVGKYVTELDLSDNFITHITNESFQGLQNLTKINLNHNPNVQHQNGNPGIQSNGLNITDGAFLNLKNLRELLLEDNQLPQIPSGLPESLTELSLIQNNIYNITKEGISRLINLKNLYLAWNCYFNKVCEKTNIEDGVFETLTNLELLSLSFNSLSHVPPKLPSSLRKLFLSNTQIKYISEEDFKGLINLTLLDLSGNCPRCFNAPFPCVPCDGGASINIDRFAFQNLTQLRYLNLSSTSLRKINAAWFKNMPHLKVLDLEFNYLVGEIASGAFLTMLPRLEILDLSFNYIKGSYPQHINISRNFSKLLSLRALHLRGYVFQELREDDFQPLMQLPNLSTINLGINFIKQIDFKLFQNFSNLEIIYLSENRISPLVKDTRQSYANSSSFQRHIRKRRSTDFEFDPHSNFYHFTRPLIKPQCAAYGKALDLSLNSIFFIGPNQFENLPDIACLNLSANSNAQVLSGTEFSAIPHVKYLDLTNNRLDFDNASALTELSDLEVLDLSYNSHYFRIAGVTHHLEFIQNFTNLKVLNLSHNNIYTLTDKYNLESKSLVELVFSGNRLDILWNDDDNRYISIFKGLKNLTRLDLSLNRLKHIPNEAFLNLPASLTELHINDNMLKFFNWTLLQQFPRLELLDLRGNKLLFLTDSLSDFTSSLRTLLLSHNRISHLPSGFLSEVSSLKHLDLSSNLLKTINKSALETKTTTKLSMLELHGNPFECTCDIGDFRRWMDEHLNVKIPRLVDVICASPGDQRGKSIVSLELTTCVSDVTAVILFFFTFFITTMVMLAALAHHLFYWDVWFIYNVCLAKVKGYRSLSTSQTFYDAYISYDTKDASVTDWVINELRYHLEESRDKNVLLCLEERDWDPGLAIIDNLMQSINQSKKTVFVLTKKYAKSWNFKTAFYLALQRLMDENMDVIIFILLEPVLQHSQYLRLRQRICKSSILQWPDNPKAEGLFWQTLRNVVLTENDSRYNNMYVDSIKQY
Experimental: (§1) Each compound was synthesized, purified, and characterized by mass spectrometry and shown to have the mass indicated. Additional experimental procedures are found in the Examples. Activity against HEK293 NFKB reporter cells expressing human TLR7 or human TLR8 was measured according to Example 202.
(§2) Example 202 HEK Reporter Assay
(§3) HEK293 reporter cells expressing human TLR7 or human TLR8 were purchased from Invivogen and vendor protocols were followed for cellular propagation and experimentation. Briefly, cells were grown to 80-85% confluence at 5% CO2 in DMEM supplemented with 10% FBS, Zeocin, and Blasticidin. Cells were then seeded in 96-well flat plates at 4×10^4 cells/well with substrate containing HEK detection medium and immunostimulatory molecules.

[2] = biological target: T2, human TLR7 (Homo sapiens, UniProt Q9NYK1); assay: HEK Reporter Assay, HEK293 reporter cells expressing human TLR7; type: cell-based; details: HEK293 NFKB reporter cells expressing human TLR7; read-out: HEK293 hTLR7 EC50
T2 construct: host or cells: HEK293 NF-kB reporter cells
T2 sequence (Q9NYK1 27-1049): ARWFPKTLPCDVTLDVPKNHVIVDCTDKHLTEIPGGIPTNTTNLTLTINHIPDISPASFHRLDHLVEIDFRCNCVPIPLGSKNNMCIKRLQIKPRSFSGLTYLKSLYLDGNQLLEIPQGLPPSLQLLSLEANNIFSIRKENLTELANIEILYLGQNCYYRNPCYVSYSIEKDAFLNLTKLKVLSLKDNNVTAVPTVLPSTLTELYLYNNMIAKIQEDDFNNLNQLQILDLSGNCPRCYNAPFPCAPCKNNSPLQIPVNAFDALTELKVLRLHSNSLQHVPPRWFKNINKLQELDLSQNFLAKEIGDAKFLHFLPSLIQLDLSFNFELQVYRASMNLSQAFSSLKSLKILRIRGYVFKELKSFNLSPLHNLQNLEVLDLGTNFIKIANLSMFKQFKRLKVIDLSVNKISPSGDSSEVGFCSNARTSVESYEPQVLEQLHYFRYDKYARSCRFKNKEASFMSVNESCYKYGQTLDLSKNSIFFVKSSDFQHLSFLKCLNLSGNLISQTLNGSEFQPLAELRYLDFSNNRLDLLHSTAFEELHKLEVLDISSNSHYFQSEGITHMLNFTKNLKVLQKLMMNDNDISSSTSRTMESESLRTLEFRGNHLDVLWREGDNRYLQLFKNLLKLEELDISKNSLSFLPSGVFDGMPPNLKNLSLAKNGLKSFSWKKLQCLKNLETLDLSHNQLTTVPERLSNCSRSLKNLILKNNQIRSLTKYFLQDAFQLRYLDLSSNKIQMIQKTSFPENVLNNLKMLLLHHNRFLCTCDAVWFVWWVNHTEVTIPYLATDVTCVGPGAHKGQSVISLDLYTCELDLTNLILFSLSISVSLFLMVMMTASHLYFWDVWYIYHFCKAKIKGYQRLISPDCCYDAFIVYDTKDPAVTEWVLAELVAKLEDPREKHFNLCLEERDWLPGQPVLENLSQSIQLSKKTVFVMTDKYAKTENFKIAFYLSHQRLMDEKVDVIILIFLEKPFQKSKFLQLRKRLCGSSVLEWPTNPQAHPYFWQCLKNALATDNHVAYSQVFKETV
Experimental: as §1, §2, §3

EC50 [1] [nM]	EC50 [2] [nM]	Compound
423	3520	CCCN(CCO)C(=O)C1=Cc2ccc(-c3cccc(S(=O)(=O)N4CC(CNC(=O)OC(C)(C)C)C4)c3)cc2N=C(N)C1 [PhBz-21]
822		CCCN(OCCO)C(=O)C1=Cc2ccc(-c3cccc(S(=O)(=O)N4CC(CN)C4)c3)cc2N=C(N)C1 [PhBz-25]
1080	5140	CCCN(CCCCO)C(=O)C1=Cc2ccc(-c3cccc(S(=O)(=O)N4CC(CNC(=O)OC(C)(C)C)C4)c3)cc2N=C(N)C1 [PhBz-9]
